Laboratory results: patent US11028137B2, “Mutant islet amyloid polypeptides with improved solubility and methods for using the same” (priority 2017, dated 2021)
Where a SMILES comes first, the peptide text is derived from it.

How the values were obtained:
[1] = Thioflavin-T fluorescence assay of amyloid formation kinetics; assay type: physicochemical; details: 16 μM peptide, 10 mM PBS pH 7.4, 25° C., no stirring; 1 week and 6 week incubations
Protocol: Sample Preparation. Each peptide was dissolved into 100% hexafluoroisoproponal (HFIP) to make a 0.5 mM stock solution. Stock solutions were filtered using […] Acrodisc syringe filter with a GHP membrane and the required amount of peptide was lyophilized overnight to remove HFIP. Dry peptide was dissolved into the appropriate buffer for the fluorescence assays. Fluorescence Assays. Thioflavin-T binding assays, conducted without HFIP or stirring at 25° C., were utilized to monitor amyloid formation kinetics. Fluorescence measurements were performed using a Spectramax Gemini EM plate reader. Corning 96-well non-binding surface black plates with lids were used and were sealed with polyethylene sealing tape. Samples were prepared by dissolving dry peptide into 10 mM PBS buffer (pH 7.4) and 32 μM thioflavin-T solution immediately before the measurement. Thioflavin-T fluorescence was measured with 450 nm excitation and emission at 485 nm was monitored. The final concentrations were 16 μM peptides. After creating the mutant-hIAPP polypeptides of the present disclosure, applicants tested the propensity of the different analogs to form amyloid at pH 7.4 using thioflavin-T fluorescence assays (FIGS. 2A-D) and TEM (FIGS. 3A-E). […] Amyloid formation follows a sigmoidal time course consisting of a lag phase in which few, if any, fibrils are formed, followed by a growth phase and a saturation phase in which amyloid fibrils are in equilibrium with soluble peptide.

[2] = target: T1, human amylin receptor (hAMY1(a)) (Homo sapiens, UniProt O60894+P30988); assay: cAMP production (LANCE cAMP assay) in transfected Cos-7 cells; assay type: cell-based; details: Cos-7 cells expressing hAMY1(a); for EC50: cAMP production, mean ± spread, read-out: Human Amylin1(a) receptor binding data pEC50 (converted)
T1 construct: expressed in transfected cells; host or cells: Cos-7 cells, transient transfection with PEI, pcDNA3.1 vectors
T1 sequence (O60894 27-148 partner, one chain of several): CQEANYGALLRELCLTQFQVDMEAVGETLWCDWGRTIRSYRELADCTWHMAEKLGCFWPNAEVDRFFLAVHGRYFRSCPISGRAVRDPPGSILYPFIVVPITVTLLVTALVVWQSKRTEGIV
Protocol: (§1) Cell Culture and Transfection. Cos-7 cells were cultured and transfected for receptor activity assays as previously described in Bailey, R. J., and Hay, D. L. Peptides (2006) 27, pp. 1367-1375, the entire contents of which is incorporated herein by reference. Specifically, cells were cultured in Dulbucco's modified eagle medium (DMEM) with 8% heat-inactivated fetal bovine serum (FBS) and kept in a 37° C. humidified 95% air/5% CO2 incubator. Cells were plated at a density of 18,000-20,000 cells/well (depending on cell passage) in 96-well culture plate and returned to the incubator for approximately 18-24 hours. Transient transfections were carried out using polyethyleneimine (PEI) as described previously and maintained at 37° C. in a humidified 95% air/5% CO2 incubator for 36-48 hours. All DNA constructs used in this these were in pcDNA3.1 vectors.
(§2) cAMP Assay: Measurement of intracellular cAMP was achieved using a time-resolved fluorescent resonance energy transfer assay (LANCE cAMP assay, PerkinElmer), similar to the previously described Alphascreen assay as described in Gingell, J. J., et al. Peptides (2010) 31, pp. 1400-1404, with the following changes. Following stimulation with peptide agonist, cAMP assay media from the wells was thoroughly aspirated and 50 μl of ice-cold absolute ethanol added to each well. Plates were then placed in a −30° C. freezer for 10 minutes or overnight prior to assay, then removed and allowed to air dry in a fume hood for 1-2 hours. After ethanol evaporated from the plates, 50 μl of LANCE detection buffer (lysis buffer, 0.35% Triton X-100, 50 mM HEPES and 10 mM calcium chloride in ddH2O, pH 7.4) was added per well and left on a plate shaker for 10-15 minutes at room temperature. Meanwhile, a cAMP standard curve was generated using LANCE detection buffer and a serially diluted cAMP standard (50 μM) ranging from 1 μM to 10 pM. The serially diluted cAMP standards (5 μl) and cell lysates (5 μl) were transferred into 384-well opti-plates and sealed with a Sealplate®-A-384-well microplate adhesive film and briefly centrifuged (10 seconds, 500 rpm, 23° C.). A 1:200 dilution of LANCE assay Alexa Fluor® 647 anti-cAMP antibody was prepared in detection buffer and 5 μl added to each well. Plates were sealed and briefly centrifuged again (10 seconds, 500 rpm, 23° C.) and left to incubate, sealed for 30 minutes at room temperature. During this incubation, detection mix was made up consisting of detection buffer, Europium-W8044 labelled streptavidin (1:4500) and biotin-cAMP (1:1500). After 30 minutes incubation, 10 μl of detection mix was added to each well, plates were centrifuged (30 seconds, 500 rpm, 23° C.), sealed and left to incubate for 1 hour at room temperature. Plates were read after an overnight incubation on an Envision plate reader. A standard curve was included in each experiment to ensure accurate quantification of cAMP.
(§3) Data Analysis for Receptor Assays: Data were derived from independent experiments for statistical analysis and all experiments were performed and replicated. Quantification of cAMP was obtained from a standard curve included in each experiment and plotted using the software GraphPad Prism 6.0 (GraphPad Software Inc, San Diego, Calif., USA) with a non-linear regression 3-parameter logistic equation with a Hill Slope of 1 to determine the pEC50. The pEC50 values from the fits were combined from different experimental days and statistically tested for difference from the WT peptide using the Student's t-test with statistical significance defined as * p<0.05, ** p<0.01, *** p<0.001. Due to variability in amount of cAMP produced between experimental days, data were normalized to the control peptide for each experiment to obtain Emax values. For each analogue, data were normalized to the maximum (Emax) and minimum (Emin) responses of h-amylin. […]

[3] = target: T2, human calcitonin receptor (hCT(a)) (Homo sapiens, UniProt P30988); assay: as above; assay type: cell-based; details: Cos-7 cells expressing hCT(a); for EC50: cAMP production, mean ± spread, read-out: Human calcitonin receptor binding data pEC50 (converted)
T2 construct: expressed in transfected cells; host or cells: Cos-7 cells, transient transfection with PEI, pcDNA3.1 vectors
T2 sequence (P30988 25-474): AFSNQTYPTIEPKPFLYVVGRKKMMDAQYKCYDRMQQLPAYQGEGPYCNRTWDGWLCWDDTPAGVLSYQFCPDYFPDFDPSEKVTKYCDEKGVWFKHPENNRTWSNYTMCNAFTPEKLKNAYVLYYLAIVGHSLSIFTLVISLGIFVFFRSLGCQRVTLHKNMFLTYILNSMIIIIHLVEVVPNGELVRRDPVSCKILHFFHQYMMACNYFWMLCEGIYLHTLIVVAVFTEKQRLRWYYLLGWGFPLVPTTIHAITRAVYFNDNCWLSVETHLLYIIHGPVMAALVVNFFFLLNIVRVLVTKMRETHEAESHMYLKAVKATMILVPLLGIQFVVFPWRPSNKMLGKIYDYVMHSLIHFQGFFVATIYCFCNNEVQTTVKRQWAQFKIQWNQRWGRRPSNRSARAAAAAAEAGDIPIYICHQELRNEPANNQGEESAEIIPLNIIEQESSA
Protocol: as §1, §2, §3

[4] = pH 7
Protocol: 100 μL each solution was obtained immediately following dissolution with Novolin-N® and was centrifuged using a Beckman Coulter Microfuge (22R Centrifuge) at 24° C. for 20 minutes. The relative centrifugal force used was 1.75×104 g. Aliquots of each sample were immediately frozen and lyophilized. The remaining portion of each sample was not centrifuged and were incubated at 25° C. without stirring. Samples were collected again following the same procedures after 1 day, 7 days and 30 days. Dry samples were redissolved in 4:1 HPLC buffer mix (4A:1B, below) and immediately injected for liquid chromatography-mass spectroscopy (LC-MS) measurements. The HPLC buffers were (A) H2O (0.1% acetic acid and 0.02% TFA) and (B) CH3CN (0.1% acetic acid and 0.02% TFA). Solubility of each co-formulated sample was determined by measuring the absorbance from the liquid chromatogram traces at 215±8 nm and at 277±8 nm at each time point tested. points (0 hours, 24 hours, 7 days and 30 days post-formulation).

[5] = pH 7.4
Protocol: Dry peptides were dissolved into 10 mM PBS buffer at pH 7.4 at different initial concentrations, and were incubated for 7 days at 25° C. without stirring. Each sample was then centrifuged using a Beckman Coulter Microfuge 22R Centrifuge at 24° C. for 20 min. The relative centrifugal force used was 1.75×10^4 g. Solubility of each sample was approximated by measuring the absorbance of the corresponding supernatant at 280 nm measured using a Beckman Coulter DU 730 UV/Vis Spectrophotometer.
Each peptide tested was incubated in 10 mM PBS buffer at pH 7.4 for 7 days at three different concentrations (100 μM, 500 μM and 1 mM) and the solution was then centrifuged. The apparent solubility was represented by the absorbance of the supernatant of each sample measured at 280 nm. The extinction coefficients of all polypeptides are very similar at 280 nm since they all contain the same aromatic residues and each contains a disulfide bond. […] A peptide which is soluble at 1 mM and above will show a linear dependence of absorbance on initial concentration. A peptide which is less soluble will deviate from linearity. The peptides were centrifuged after 7 days and their apparent solubility measured by measuring the absorbance at 280 nm of the supernatant of each solution. The apparent concentration refers to the concentration which would be obtained if all of the peptide dissolved. The absorbance of the supernatant is directly proportion to the amount of peptide in solution.

[6] = Transmission electron microscopy (TEM) of amyloid aggregates; assay type: physicochemical; details: after 7 days of incubation, end of kinetic experiment
Protocol: Transmission Electron Microscopy (TEM). TEM images were recorded using an FEI Bio TwinG^2 Transmission Electron Microscope at the central microscopy center at Stony Brook University. 15 μL aliquots of the samples used for fluorescence assays were removed at the end of each kinetic experiment, blotted on a carbon formvar-coated 300-mesh copper grid for 1 min and then negatively stained with saturated uranyl acetate for 1 min. Images were taken at a 68,000× magnification and 100 nm under focus. Mutant-hIAPP polypeptides of the present disclosure were further analyzed using TEM. […] In contrast, no amyloid fibrils were formed after a 1 week (FIGS. 3B-E, left) or 6 week (FIGS. 3B-E, right) culture with the any of the mutant-hIAPP analogs tested.

| EC50 [2] | EC50 [3] | amyloid aggregates in TEM images [6] | Structure (SMILES) | amyloid formation monitored by thioflavin-T fluorescence [1] | concentration-response of cAMP production compared with wild-type hIAPP [2] | concentration-response of cAMP production compared with wild-type hIAPP [3] | solubility co-formulated with Novolin-N (absorbance at 215 nm and 277 nm, LC-MS) [4] | solubility at neutral pH (absorbance of supernatant at 280 nm) [5] |
| --- | --- | --- | --- | --- | --- | --- | --- | --- |
| 0.372 nM | 2.82 nM | no aggregates are observed | CC[C@H](C)[C@H](NC(=O)[C@H](C)NC(=O)CNC(=O)[C@H](Cc1ccccc1)NC(=O)[C@H](CCCCN)NC(=O)[C@H](CC(N)=O)NC(=O)[C@H](CO)NC(=O)[C@H](CO)NC(=O)[C@H](Cc1c[nH]cn1)NC(=O)[C@@H](NC(=O)[C@H](CC(C)C)NC(=O)[C@H](Cc1ccccc1)NC(=O)[C@H](CC(N)=O)NC(=O)[C@H](C)NC(=O)[C@H](CC(C)C)NC(=O)[C@H](CCCNC(=N)N)NC(=O)[C@H](CCC(N)=O)NC(=O)[C@@H](NC(=O)[C@H](C)NC(=O)[C@@H]1CSSC[C@H](NC(=O)[C@@H](N)CCCCN)C(=O)N[C@@H](CC(N)=O)C(=O)N[C@@H]([C@@H](C)O)C(=O)N[C@@H](C)C(=O)N[C@@H]([C@@H](C)O)C(=O)N1)[C@@H](C)O)C(C)C)C(=O)N[C@@H](CC(C)C)C(=O)N1CCC[C@H]1C(=O)N[C@@H](CO)C(=O)N[C@H](C(=O)N[C@@H](CCCCN)C(=O)N[C@H](C(=O)NCC(=O)N[C@@H](CO)C(=O)N[C@@H](CC(N)=O)C(=O)N[C@H](C(=O)N[C@@H](Cc1ccc(O)cc1)C(N)=O)[C@@H](C)O)C(C)C)[C@@H](C)O [SEQ ID NO: 22] (HELM PEPTIDE1{K.C.N.T.A.T.C.A.T.Q.R.L.A.N.F.L.V.H.S.S.N.K.F.G.A.I.L.P.S.T.K.V.G.S.N.T.Y.[am]}$PEPTIDE1,PEPTIDE1,2:R3-7:R3$$$V2.0) | none of the mutant hIAPP polypeptides forms amyloid | do not significantly alter amylin or calcitonin receptor activity | do not significantly alter amylin or calcitonin receptor activity | significantly higher absorbance when compared to both wild-type hIAPP and paramlintide | more substantially soluble than wild-type hIAPP |
| 1.78 nM | 10.7 nM | no aggregates are observed | CC(C)C[C@H](NC(=O)[C@H](CCCNC(=N)N)NC(=O)[C@H](CCC(N)=O)NC(=O)[C@@H](NC(=O)[C@H](C)NC(=O)[C@@H]1CSSC[C@H](NC(=O)[C@@H](N)CCCCN)C(=O)N[C@@H](CC(N)=O)C(=O)N[C@@H]([C@@H](C)O)C(=O)N[C@@H](C)C(=O)N[C@@H]([C@@H](C)O)C(=O)N1)[C@@H](C)O)C(=O)N[C@@H](C)C(=O)N[C@@H](CC(N)=O)C(=O)N[C@@H](Cc1ccccc1)C(=O)N[C@@H](CC(C)C)C(=O)N[C@H](C(=O)N[C@@H](Cc1c[nH]cn1)C(=O)N[C@@H](CO)C(=O)N[C@@H](CO)C(=O)N[C@@H](CCCCN)C(=O)N[C@@H](CC(N)=O)C(=O)N[C@@H](Cc1ccccc1)C(=O)N1CCC[C@H]1C(=O)N[C@@H](C)C(=O)N1CCC[C@H]1C(=O)N[C@@H](CC(C)C)C(=O)N[C@@H](CO)C(=O)N[C@@H](CO)C(=O)N[C@H](C(=O)N[C@@H](CC(N)=O)C(=O)N[C@H](C(=O)NCC(=O)N[C@@H](CO)C(=O)N[C@@H](CCCCN)C(=O)N[C@H](C(=O)N[C@@H](Cc1ccc(O)cc1)C(N)=O)[C@@H](C)O)C(C)C)[C@@H](C)O)C(C)C [SEQ ID NO: 8] (HELM PEPTIDE1{K.C.N.T.A.T.C.A.T.Q.R.L.A.N.F.L.V.H.S.S.K.N.F.P.A.P.L.S.S.T.N.V.G.S.K.T.Y.[am]}$PEPTIDE1,PEPTIDE1,2:R3-7:R3$$$V2.0) | none of the mutant hIAPP polypeptides forms amyloid |  |  | significantly higher absorbance when compared to both wild-type hIAPP and paramlintide | more substantially soluble than wild-type hIAPP |
